Experiment: Pharmacokinetic study in rats after oral administration
Format: in vivo
Settings: male, Wistar, rat, plasma

SMILES | Tmax [h] | half-life [h]
CCC(C)(C)C(=O)O[C@H]1C[C@@H](C)C=C2C=C[C@H](C)[C@H](CC[C@@H]3C[C@@H](O)CC(=O)O3)[C@H]21 [Simvastatin, simvastatin] | 0.75 | 5.6 ± 0.1
N[C@@H](CC(=O)N1CCn2c(nnc2C(F)(F)F)C1)Cc1cc(F)c(F)cc1F [Sitagliptin, sitagliptin] | 1 | 6.1 ± 0.2
